Like-named read-outs stand apart in the source and are kept apart here.
Key:
[1] = Pharmacokinetic profile in dogs; assay type: in vivo; conditions: one female Beagle dog
Protocol: The pharmacokinetic profile of Compound 18 is evaluated in one female Beagle dog. One single oral and one single IV dose of 25 mg/kg separated by a wash-out period are administered to the dog to get key preliminary information about the pharmacokinetics and oral bioavailability of Compound 18.

[2] = system: Diet-Induced Obesity (DIO) mouse model; assay: Diet-Induced Obesity (DIO) mouse model: glycemia, insulin, body weight; assay type: in vivo; conditions: DIO mice; 100 mg/kg BID oral gavage, 7 days
Protocol: The objective of this study is to determine the effect of the compounds of the invention, namely Compounds 6A, 6B and 18, glycemia, insulin and body weight gain in a Diet-Induced Obesity (DIO) mouse model. Results are compared with (2S,3R,4S)-4-hydroisoleucine (positive control) and vehicle (negative control).
C57BL/6 mice are tested at 17-18 weeks of age and fed a high fat diet (60% of calories from fat) for 8 weeks. Fasted glycemia and body weight values are used to randomize the mice into control and treatment groups (n=8). The animals are treated twice dally (BID) (once on 7th day) by oral gavage with 4-hydroxyisoleucine, Compounds 6A, 6B and 18 (100 mg per kg of body weight), and the control group receive vehicle (water) alone. The animals are treated for 7 days.
Oral glucose Tolerance Test (OGTT) is performed at 5 hours±30 minutes Post starvation (day 0 only) or Post AM test article administration (for day 7). Blood samples are collected via tail vein for glucose determination prior to glucose challenge (Pre-OGTT) and at 5, 10, 20, 30, 60, 90 and 120 minutes post-glucose administration. Glucose determination is perfomed using a hand held glucometer (Model OneTouch Ultra, LifeScan).
A second blood sample is also collected Pre-OGTT and at 5, 10, 60 and 120 minutes Post-OGTT for insulin determination. Insulin determination is done using an enzyme Immunoassay kit (Mecodia Ultrasensitive Mouse Insulin ELISA, ALPCO Diagnostics, Wndham, N.H.).
Body weight of the mice is measured at arrival, randomization, and on days 0, 3 and 7 of treatment. At the end of the study, the epididymal fat pads were isolated and weighed. Data are expressed as mean±SEM of body weight and mean±SEM of fat pad weight.

Gabapentin binding site [3] = biological target: T1, Gabapentin binding site (Rattus norvegicus, UniProt P54290); conditions: Method 1, rat brain membranes, 3H-gabapentin; for % inhibition 1 μM: compound 1 μM; for % inhibition 10 μM: compound 10 μM
Protocol: Materials: Gabapentin is from TRC, [^3H]-Gabapentin is from GE Healthcare, and Meltilex A sheets (melt-on scintillator sheets) are from Perkin Elmer. Rat brain membranes are prepared in-house by conventional methods.
All solutions are prepared for the assay just before use, except for the membrane dilution. […] The final compound concentration in the assay is 1, 10 and 100 μM. The same is done with a solution not containing the test articles as control. The test plate is then incubated for 30 minutes at room temperature with agitation. The binding reaction is terminated using a Tomtec cell harvester machine (Mach III M-FP-1). A meltilex sheet is placed on the filtermat (harvest from the assay) and is allowed to melt in the oven at 65° C. for 1 to 4 min. The filter is inserted in the plastic pouch, which is sealed and allowed to cool for 1 h before counting with a Microbeta Trilux counter (Perkin Elmer).
Results are calculated using the count per minutes (CPM) obtained for each sample with the Trilux. The CPM obtained for the control diluent represents the 100% binding of ^3H-Gabapentin to membrane. The CPM obtained for the control gabapentin 100 μM represents the 0% binding. The % of binding for each compound is calculated by the formula: […]

[4] = Pharmacokinetic profile in mice; assay type: in vivo; conditions: mouse, plasma, read-out: Bioavailability (% F)
Protocol: Compounds are tested for pharmacokinetic profile, including oral bioavailability in mice using the following procedure. Bioavailability estimates are performed after administration of 100 mg/kg of Compound 6B and 50 mg/kg of Compound 18 either Intravenously (IV) or orally (PO). Four animals per time point, per mode of administration are used. At each specific time point following drug administration, a blood sample is collected terminally (under isoflurane anesthesia) via cardiac puncture from each the 4 animals. Samples are collected at pre-dose and at 5, 15, 30, and 60 minutes and at 2, 4, 6, 8, 14 and 24 hours post oral administration and at pre-dose and 2, 5, 15, 30, and 60 minutes and 2, 4, 8, 14 and 24 hours post intravenous administration. Blood samples are collected into tubes containing K3-EDTA as anticoagulant, kept on ice until centrifugation at 4° C. at a minimum speed of 3000 rpm (1620G) for 10 min. Plasma samples are harvested into polypropylene tubes, immediately placed on dry ice and stored at −80° C.
Compounds in mouse plasma are extracted using protein precipitation. Quantitation of the compounds in mouse plasma matrix is achieved using LC-MS detection. Sample concentration is calculated using a calibration curve. FIGS. 3A and 3B show mouse PK curves in log scale for Compounds 6B and 18 respectively. […]

Gabapentin binding site [5] = biological target: T1, Gabapentin binding site; assay: [3H]-gabapentin binding assay, Method 2 (crude rat brain membranes); conditions: 20 nM [3H]-gabapentin; for % inhibition 1 μM: compound 1 μM; for % inhibition 10 μM: compound 10 μM
Protocol: Membrane preparation: cortices from 5 rats were homogenized in a 0.32 M sucrose solution containing 10 mM HEPES/KOH. Suspensions were centrifuged for 10 minutes at 2500×g and the supernatants were centrifuged at 48000×g for 20 minutes. […] The final pellets were re-suspended in 10 mM HEPES/KOH. Protein concentration was determined using a BCA kit from Pierce (Rockford, Ill.). The quality of the preparation was assessed in a binding assay to gabapentin.
Binding assay: in 96-well plates, the selected compounds were incubated in 10 mM HEPES/KOH pH 7.4 at concentrations of 10 and 1 μM for 30 minutes at room temperature in the presence of 20 nM [^3H]-gabapentin and rat brain membranes (300 μg/mL of proteins). Radioactivity was assessed after filtration with the Tomtec cell harvester using a glass fiber filter A. Counts were obtained using the Microbeat Trilux counter.
[formula] wherein: [total binding]s is the total binding of [^3H]-gabapentin in the presence of the compound; [non-specific binding]c is the non specific binding of [^3H]-gabapentin in the presence of 100 μM cold gabapentin (c=control); and [total binding]c is the total binding of [^3H]-gabapentin alone.

[6] = system: metrazole-induced clonic convulsions and mortality; assay: Metrazole-induced convulsions model; conditions: metrazole 100 mg/kg, 100% = score 9

T1 sequence (P54290 25-1091): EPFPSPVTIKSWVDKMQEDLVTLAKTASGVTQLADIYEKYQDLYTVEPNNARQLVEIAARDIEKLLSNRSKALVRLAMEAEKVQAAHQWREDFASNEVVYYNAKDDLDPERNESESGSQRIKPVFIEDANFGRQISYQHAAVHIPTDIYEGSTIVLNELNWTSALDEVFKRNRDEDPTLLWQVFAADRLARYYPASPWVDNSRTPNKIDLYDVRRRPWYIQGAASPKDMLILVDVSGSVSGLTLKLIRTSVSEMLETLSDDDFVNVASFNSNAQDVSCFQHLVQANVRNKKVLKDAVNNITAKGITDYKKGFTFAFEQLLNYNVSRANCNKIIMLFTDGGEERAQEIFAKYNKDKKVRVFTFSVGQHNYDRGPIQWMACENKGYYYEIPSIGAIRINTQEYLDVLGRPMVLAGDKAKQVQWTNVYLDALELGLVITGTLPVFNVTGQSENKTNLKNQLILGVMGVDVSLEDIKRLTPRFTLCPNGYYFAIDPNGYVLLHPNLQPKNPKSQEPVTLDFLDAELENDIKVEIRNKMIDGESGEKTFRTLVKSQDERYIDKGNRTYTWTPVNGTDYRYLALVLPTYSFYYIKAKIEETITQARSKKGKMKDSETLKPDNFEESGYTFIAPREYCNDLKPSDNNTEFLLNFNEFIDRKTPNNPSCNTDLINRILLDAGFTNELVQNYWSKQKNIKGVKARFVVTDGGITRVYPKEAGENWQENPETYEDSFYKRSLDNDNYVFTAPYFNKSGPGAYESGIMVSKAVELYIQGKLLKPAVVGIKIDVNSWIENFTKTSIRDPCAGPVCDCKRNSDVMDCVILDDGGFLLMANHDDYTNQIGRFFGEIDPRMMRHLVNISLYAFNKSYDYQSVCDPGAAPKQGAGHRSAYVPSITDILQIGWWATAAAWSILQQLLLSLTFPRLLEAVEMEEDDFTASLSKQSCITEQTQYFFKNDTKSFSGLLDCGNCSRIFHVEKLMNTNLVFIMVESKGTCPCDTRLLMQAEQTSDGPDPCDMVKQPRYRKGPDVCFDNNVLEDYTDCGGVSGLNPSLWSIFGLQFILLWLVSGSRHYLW

SMILES | effect on glycemia compared to control [2] | % inhibition 1 μM (Gabapentin binding site [3]) [%] | % inhibition 10 μM (Gabapentin binding site [3]) [%] | % inhibition 1 μM (Gabapentin binding site [5]) | % inhibition 10 μM (Gabapentin binding site [5]) | other results
N[C@H](C(=O)O)[C@@H]1CCCC[C@H]1O [Compound 18] | no effect | 87 | 90 | 21% (±3) | 6% (±1) | bioavailability ([1]; in vivo, 25 mg/kg oral and IV): 97%; absorption following oral administration ([1]; 25 mg/kg oral): rapidly and very well absorbed; first pass effect ([1]; 25 mg/kg oral): does not demonstrate any significant first pass effect; terminal half live ([1]; 25 mg/kg single dose): around 7 hours; bioavailability ([4]; 50 mg/kg IV or PO): 88.4%; % Prevention of convulsions in mice ([6]; dose 200 mg/kg): 67%
N[C@@H](CC1CCCO1)C(=O)O (stereo partly shown) [Compound 6] | – | 82 | 92 | – | – | –
N[C@@H](C[C@H]1CCCO1)C(=O)O [Compound 7] | neutral or beneficial effect | – | – | 19% (±4) | 1% (±1) | effect on insulin compared to control [2]: neutral or beneficial effect
C[C@@H]([C@H](C)O)[C@H](N)C(=O)O [Compound 4-HO-Ile, (2S,3R,4S) 4-hydroxyisoleucine, reference compound] | – | 13 | 51 | – | – | –
N[C@@H](Cc1ccco1)C(=O)O [(2S)-Compound, (2S)-3-(2-furyl)alanine] | – | – | – | 61% (±8) | 16% (±3) | –
NCC1(CC(=O)O)CCCCC1 [Gabapentin] | – | – | – | – | – | % Prevention of convulsions in mice ([6]; dose 100 mg/kg): 67%
N[C@@H](C[C@@H]1CCCO1)C(=O)O [Compound 8] | neutral or beneficial effect | – | – | 11% (±1) | 0% (±2) | effect on insulin compared to control [2]: neutral or beneficial effect; bioavailability ([4]; 100 mg/kg IV or PO): ~100%
CN1C(=O)CN=C(c2ccccc2)c2cc(Cl)ccc21 [Diazepam, diazepam] | – | – | – | – | – | % Prevention of convulsions in mice ([6]; dose 1 mg/kg): 67%
